≈ marks a conversion by molar mass, not a printed value.
Experiments:
[1] = tested on: Mus musculus; assay: In vivo antitumor activity against P388 murine leukemia as percentage increase in life span as compared with the untreated at a dose of 0.125 mg/kg administered intraperitoneally; assay type: functional; conditions: P388, ip, route intraperitoneal
[2] = tested on: P388; assay: Tested in vitro for cytotoxicity as concentration required to inhibit 50 percent growth of P388 murine leukemia cells; assay type: functional, cell-based; conditions: Mus musculus
[3] = tested on: Mus musculus; assay: In vivo antitumor activity against P388 murine leukemia as percentage increase in life span as compared with the untreated at a dose of 0.063 mg/kg administered intraperitoneally; assay type: functional; conditions: P388, ip, route intraperitoneal
[4] = tested on: Mus musculus; assay: In vivo antitumor activity against P388 murine leukemia as percentage increase in life span as compared with the untreated at a dose of 1 mg/kg administered intraperitoneally; assay type: functional; conditions: P388, ip, route intraperitoneal
[5] = tested on: Mus musculus; assay: In vivo antitumor activity against P388 murine leukemia as percentage increase in life span as compared with the untreated at a dose of 0.5 mg/kg administered intraperitoneally; assay type: functional; conditions: P388, ip, route intraperitoneal
[6] = tested on: Mus musculus; assay: In vivo antitumor activity against P388 murine leukemia as percentage increase in life span as compared with the untreated at a dose of 0.25 mg/kg administered intraperitoneally; assay type: functional; conditions: P388, ip, route intraperitoneal
[7] = tested on: Mus musculus; assay: In vivo antitumor activity against P388 murine leukemia as percentage increase in life span as compared with the untreated at a dose of 0.625 mg/kg administered intraperitoneally; assay type: functional; conditions: P388, ip, route intraperitoneal

## COC(=O)c1[nH]c2c(c1C(=O)OC)C13CC1CN(C(=O)c1cc4cc(OC)ccc4[nH]1)C3=CC2=O (stereo not drawn)
[1]
  ILS at 0.125 mg/kg: 49%
[2]
  IC50: 0.63 ng/mL (≈ 1.33 nM)

## COC(=O)c1[nH]c2c(c1C(=O)OC)C13CC1CN(C(=O)c1cc4cc(OC)c(OC)c(OC)c4[nH]1)C3=CC2=O (stereo not drawn)
[3]
  ILS at 0.063 mg/kg: 43%
[2]
  IC50: 0.74 ng/mL (≈ 1.38 nM)

## COC(=O)c1[nH]c2c(O)cc3c(c2c1C(=O)OC)C(CCl)CN3C(=O)c1cc2cc(OC)ccc2[nH]1 (stereo not drawn)
[4]
  ILS at 1 mg/kg: 43%
[2]
  IC50: 0.27 ng/mL (≈ 0.527 nM)

## COC(=O)c1[nH]c2c(O)cc3c(c2c1C(=O)OC)C(CCl)CN3C(=O)c1cc2cc(NC(=O)c3cc4ccccc4[nH]3)ccc2[nH]1 (stereo not drawn)
[5]
  ILS at 0.5 mg/kg: 90%
[2]
  IC50: 0.24 ng/mL (≈ 0.375 nM)

## COC(=O)c1c(C)[nH]c2c(O)cc3c(c12)[C@H](CCl)CN3C(=O)c1cc2cc(OC)c(OC)c(OC)c2[nH]1
[2]
  IC50: 0.22 ng/mL (≈ 0.417 nM)
[6]
  ILS at 0.25 mg/kg: 74%

## COC(=O)c1[nH]c2c(c1C(=O)OC)C13CC1CN(C(=O)c1cc4cc(NC(=O)c5cc6ccccc6o5)ccc4[nH]1)C3=CC2=O (stereo not drawn)
[1]
  ILS at 0.125 mg/kg: 79%

## COC(=O)c1[nH]c2c(O)cc3c(c2c1C(=O)OC)C(CCl)CN3C(=O)c1cc2cc(OC)c(OC)c(OC)c2[nH]1 (stereo not drawn)
[4]
  ILS at 1 mg/kg: 73%
[2]
  IC50: 0.31 ng/mL (≈ 0.542 nM)

## COC(=O)c1[nH]c2c(O)cc3c(c2c1C(=O)OC)C(CCl)CN3C(=O)c1cc2cc(NC(=O)c3cc4ccccc4o3)ccc2[nH]1 (stereo not drawn)
[7]
  ILS at 0.625 mg/kg: 115%
[2]
  IC50: 0.32 ng/mL (≈ 0.499 nM)

## COC(=O)c1[nH]c2c(c1C(=O)OC)C13CC1CN(C(=O)c1cc4cc(NC(=O)c5cc6ccccc6[nH]5)ccc4[nH]1)C3=CC2=O (stereo not drawn)
[1]
  ILS at 0.125 mg/kg: 102%

## COC(=O)c1c(C)[nH]c2c1[C@@]13CC1CN(C(=O)c1cc4cc(OC)c(OC)c(OC)c4[nH]1)C3=CC2=O (mixture of isomers)
[1]
  ILS at 0.125 mg/kg: 80%
[2]
  IC50: 0.34 ng/mL
